Results from the NIST ThermoML archive (doi:10.1007/s10765-012-1370-2).
± gives the expanded uncertainty stated by the source.

Test: xn = mol fraction of the nth substance listed
Settings: Liquid, Bellows volumetry

CCC [propane] + O=C=O
mass density [kg/m3]
Settings | x2 = 0.1744 | x2 = 0.3863 | x2 = 0.5837 | x2 = 0.7732
280 K, 3000 kPa | 556.31 ± 1.1 | – | – | –
280 K, 5000 kPa | 561.89 ± 1.1 | – | – | –
280 K, 10000 kPa | 573.48 ± 1.2 | 620.48 ± 1.3 | 680.55 ± 1.4 | 763.91 ± 1.6
280 K, 20000 kPa | 592.16 ± 1.2 | 644.94 ± 1.3 | 713.25 ± 1.5 | 807.46 ± 1.7
280 K, 30000 kPa | 606.51 ± 1.2 | 663.74 ± 1.4 | 737.38 ± 1.5 | 837.33 ± 1.7
280 K, 40000 kPa | 619.31 ± 1.3 | 678.81 ± 1.4 | 756.53 ± 1.6 | 861.06 ± 1.8
280 K, 50000 kPa | 629.89 ± 1.3 | 691.83 ± 1.4 | 772.63 ± 1.6 | 880.32 ± 1.8
280 K, 60000 kPa | 639.83 ± 1.3 | 703.48 ± 1.4 | 786.68 ± 1.6 | 897.67 ± 1.9
280 K, 70000 kPa | 648.12 ± 1.3 | 713.93 ± 1.5 | 799.31 ± 1.7 | 912.73 ± 1.9
280 K, 80000 kPa | 656.23 ± 1.3 | 723.24 ± 1.5 | 810.6 ± 1.7 | 927.24 ± 1.9
280 K, 90000 kPa | 663.51 ± 1.4 | 732.5 ± 1.5 | 821.14 ± 1.7 | 939.34 ± 2
280 K, 100000 kPa | 670.12 ± 1.4 | 740.27 ± 1.5 | 830.57 ± 1.7 | 951.22 ± 2
280 K, 120000 kPa | 682.47 ± 1.4 | 754.61 ± 1.6 | 847.84 ± 1.8 | 971.86 ± 2
280 K, 140000 kPa | 693.54 ± 1.4 | 767.28 ± 1.6 | 862.96 ± 1.8 | 989.75 ± 2.1
280 K, 160000 kPa | 703.41 ± 1.4 | 779.18 ± 1.6 | 876.77 ± 1.8 | 1006.14 ± 2.1
280 K, 180000 kPa | 712.71 ± 1.5 | 789.73 ± 1.6 | 889 ± 1.9 | 1020.76 ± 2.1
280 K, 200000 kPa | 720.96 ± 1.5 | 799.56 ± 1.6 | 900.92 ± 1.9 | 1034.57 ± 2.2
320 K, 5000 kPa | 482.68 ± 0.97 | – | – | –
320 K, 10000 kPa | 508.23 ± 1 | 530.48 ± 1.1 | 547.46 ± 1.1 | –
320 K, 20000 kPa | 539.43 ± 1.1 | 577.9 ± 1.2 | 623.7 ± 1.3 | 683.7 ± 1.4
320 K, 30000 kPa | 560.67 ± 1.1 | 606.46 ± 1.2 | 663.4 ± 1.4 | 738.49 ± 1.5
320 K, 40000 kPa | 577.4 ± 1.2 | 628.01 ± 1.3 | 691.1 ± 1.4 | 775.23 ± 1.6
320 K, 50000 kPa | 591.36 ± 1.2 | 645.47 ± 1.3 | 713.18 ± 1.5 | 803.46 ± 1.7
320 K, 60000 kPa | 603.47 ± 1.2 | 660.15 ± 1.4 | 731.74 ± 1.5 | 826.73 ± 1.7
320 K, 70000 kPa | 613.78 ± 1.2 | 673.05 ± 1.4 | 747.63 ± 1.6 | 846.24 ± 1.8
320 K, 80000 kPa | 623.2 ± 1.3 | 684.45 ± 1.4 | 761.45 ± 1.6 | 863.57 ± 1.8
320 K, 90000 kPa | 631.77 ± 1.3 | 694.88 ± 1.4 | 773.99 ± 1.6 | 879.25 ± 1.8
320 K, 100000 kPa | 639.8 ± 1.3 | 704.18 ± 1.4 | 785.61 ± 1.6 | 893.05 ± 1.9
320 K, 120000 kPa | 654.22 ± 1.3 | 721.25 ± 1.5 | 806 ± 1.7 | 917.78 ± 1.9
320 K, 140000 kPa | 666.67 ± 1.4 | 735.96 ± 1.5 | 824.18 ± 1.7 | 939.18 ± 1.9
320 K, 160000 kPa | 678.11 ± 1.4 | 749.2 ± 1.5 | 839.79 ± 1.8 | 958.02 ± 2
320 K, 180000 kPa | 688.17 ± 1.4 | 761.05 ± 1.6 | 853.99 ± 1.8 | 975.24 ± 2
320 K, 200000 kPa | 697.95 ± 1.4 | 772.24 ± 1.6 | 866.84 ± 1.8 | 990.64 ± 2.1
360 K, 10000 kPa | 419.87 ± 0.84 | – | – | –
360 K, 20000 kPa | 481.41 ± 0.97 | 501.31 ± 1 | 518.21 ± 1 | 532.45 ± 1.1
360 K, 30000 kPa | 513.49 ± 1 | 546.54 ± 1.1 | 584.42 ± 1.2 | 631.46 ± 1.3
360 K, 40000 kPa | 535.86 ± 1.1 | 576.34 ± 1.2 | 624.74 ± 1.3 | 686.69 ± 1.4
360 K, 50000 kPa | 553.69 ± 1.1 | 599.05 ± 1.2 | 654.15 ± 1.3 | 725.46 ± 1.5
360 K, 60000 kPa | 568.6 ± 1.2 | – | – | –
